Assay results taken from ChEMBL document CHEMBL5335794, “Discovery of novel multifunctional ligands targeting GABA transporters, butyrylcholinesterase, β-secretase, and amyloid β aggregation as potential treatment of Alzheimer's disease” (Eur J Med Chem, 2023).

Experiments:
[1] = target: T1, GABA transporter 2 (Mus musculus, UniProt P31651)
T1 sequence (P31651 whole entry): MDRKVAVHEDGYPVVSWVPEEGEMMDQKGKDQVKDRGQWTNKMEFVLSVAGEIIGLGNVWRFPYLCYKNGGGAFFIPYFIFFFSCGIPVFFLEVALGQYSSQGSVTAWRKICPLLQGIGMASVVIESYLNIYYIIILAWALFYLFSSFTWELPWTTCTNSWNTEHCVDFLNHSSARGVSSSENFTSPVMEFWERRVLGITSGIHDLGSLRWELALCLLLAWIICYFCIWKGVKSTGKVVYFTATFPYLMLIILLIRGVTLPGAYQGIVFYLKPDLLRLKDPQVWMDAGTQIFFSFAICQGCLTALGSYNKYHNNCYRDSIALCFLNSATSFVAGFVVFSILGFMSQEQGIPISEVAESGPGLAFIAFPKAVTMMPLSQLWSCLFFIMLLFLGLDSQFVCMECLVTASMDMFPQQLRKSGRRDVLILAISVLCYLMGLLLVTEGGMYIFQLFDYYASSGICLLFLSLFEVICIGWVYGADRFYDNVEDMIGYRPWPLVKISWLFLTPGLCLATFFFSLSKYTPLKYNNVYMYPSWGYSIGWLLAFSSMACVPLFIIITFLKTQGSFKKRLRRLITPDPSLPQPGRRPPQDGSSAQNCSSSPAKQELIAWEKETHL

[2] = target: T2, Sodium- and chloride-dependent GABA transporter 1 (Mus musculus, UniProt P31648)
[3] = target: T3, GABA transporter 4 (Mus musculus, UniProt P31650)
T3 sequence (P31650 whole entry): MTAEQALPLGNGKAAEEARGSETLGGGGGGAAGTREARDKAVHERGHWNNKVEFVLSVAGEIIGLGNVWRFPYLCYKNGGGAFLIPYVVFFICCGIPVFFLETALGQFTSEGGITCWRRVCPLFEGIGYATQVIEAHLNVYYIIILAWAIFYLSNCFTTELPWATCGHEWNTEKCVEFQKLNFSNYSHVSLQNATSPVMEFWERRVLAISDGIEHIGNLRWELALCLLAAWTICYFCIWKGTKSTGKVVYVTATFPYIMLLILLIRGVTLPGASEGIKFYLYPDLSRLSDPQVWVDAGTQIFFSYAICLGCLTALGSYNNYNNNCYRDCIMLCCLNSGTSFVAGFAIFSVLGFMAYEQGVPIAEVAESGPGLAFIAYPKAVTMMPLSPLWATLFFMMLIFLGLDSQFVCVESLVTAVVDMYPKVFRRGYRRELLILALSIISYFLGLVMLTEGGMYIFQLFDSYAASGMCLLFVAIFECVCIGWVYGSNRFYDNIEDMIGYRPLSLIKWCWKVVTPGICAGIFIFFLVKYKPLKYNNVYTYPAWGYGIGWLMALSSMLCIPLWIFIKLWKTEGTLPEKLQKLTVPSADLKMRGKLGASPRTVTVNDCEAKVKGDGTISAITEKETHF

[4] = target: Cholinesterase (Equus caballus) (UniProt P81908); assay: Inhibition of equine serum BuChE using butyrylthiocholine iodide as substrate at 10 uM preincubated for 5 mins followed by substrate addition and measured after 5 mins by DTNB reagent based Ellman's method relative to control; details: time 10.0 min
[5] = target: T4, Beta-secretase 1 (Homo sapiens, UniProt P56817)
[6] = target: Acetylcholinesterase (Electrophorus electricus) (UniProt O42275); assay: Inhibition of electric eel AChE using acetylthiocholine iodide as substrate at 10 uM preincubated for 5 mins followed by substrate addition and measured after 5 mins by DTNB reagent based Ellman's method relative to control; details: time 10.0 min
[7] = target: Amyloid-beta precursor protein (Homo sapiens) (UniProt P05067); assay: Inhibition of amyloid beta42 (unknown origin) aggregation expressed in Escherichia coli BL21 (DE3) at 10 uM measured every 5 mins by ThT fluorescence based assay relative to control
[8] = target: Amyloid-beta precursor protein (Homo sapiens) (UniProt P05067); assay: Inhibition of amyloid beta40 (unknown origin) aggregation at 10 uM measured every 5 mins by ThT fluorescence based assay relative to control
[9] = Inhibition of mouse GAT3 transfected in HEK293 cells assessed as reduction in [3H]-GABA uptake preincubated for 25 mins followed by [3H]-GABA addition and measured after 4 mins by liquid scintillation counting analysis; format: cell-based; details: for IC50: HEK293
[10] = target: Cholinesterase (Equus caballus, UniProt P81908)
Description: Inhibition of equine serum BuChE using butyrylthiocholine iodide as substrate preincubated for 5 mins followed by substrate addition and measured after 5 mins by DTNB reagent based Ellman's method

[11] = target: T4, Beta-secretase 1; details: dose 50.0 µM, time 60.0 min
[12] = target: T2, Sodium- and chloride-dependent GABA transporter 1; assay: Inhibition of NO 711 marker binding to mouse GAT1 by LC-ESI-MS/MS based competitive MS binding assay
[13] = target: T1, GABA transporter 2; assay: Inhibition of mouse GAT2 transfected in HEK293 cells assessed as reduction in [3H]-GABA uptake preincubated for 25 mins followed by [3H]-GABA addition and measured after 10 mins by liquid scintillation counting analysis; format: cell-based
[14] = target: T2, Sodium- and chloride-dependent GABA transporter 1; assay: Inhibition of mouse GAT1 transfected in HEK293 cells assessed as reduction in [3H]-GABA uptake preincubated for 25 mins followed by [3H]-GABA addition and measured after 4 mins by liquid scintillation counting analysis; format: cell-based
[15] = target: T3, GABA transporter 4; assay: Inhibition of mouse GAT4 transfected in HEK293 cells assessed as reduction in [3H]-GABA uptake preincubated for 25 mins followed by [3H]-GABA addition and measured after 4 mins by liquid scintillation counting analysis; format: cell-based
[16] = target: T5, GABA transporter 4 (Mus musculus) (UniProt P31650); assay: Inhibition of mouse GAT4 transfected in HEK293 cells assessed as reduction in [3H]-GABA uptake by measuring residual activity at 100 uM preincubated for 25 mins followed by [3H]-GABA addition and measured after 4 mins by liquid scintillation counting analysis relative to control; format: cell-based; details: time 29.0 min
T5 sequence (whole entry): T3 sequence (P31650 whole entry)

[17] = target: Sodium- and chloride-dependent GABA transporter 1 (Mus musculus) (UniProt P31648); assay: Inhibition of NO 711 marker binding to mouse GAT1 assessed as residual activity at 100 uM by LC-ESI-MS/MS based competitive MS binding assay relative to control
[18] = target: Sodium- and chloride-dependent GABA transporter 1 (Mus musculus) (UniProt P31648); assay: Inhibition of mouse GAT1 transfected in HEK293 cells assessed as reduction in [3H]-GABA uptake by measuring residual activity at 100 uM preincubated for 25 mins followed by [3H]-GABA addition and measured after 4 mins by liquid scintillation counting analysis relative to control; format: cell-based; details: time 29.0 min
[19] = target: T6, GABA transporter 2 (Mus musculus) (UniProt P31651); assay: Inhibition of mouse GAT2 transfected in HEK293 cells assessed as reduction in [3H]-GABA uptake by measuring residual activity at 100 uM preincubated for 25 mins followed by [3H]-GABA addition and measured after 10 mins by liquid scintillation counting analysis relative to control; format: cell-based; details: time 35.0 min
T6 sequence (whole entry): T1 sequence (P31651 whole entry)

Sequence of Cholinesterase (Equus caballus) (P81908 whole entry): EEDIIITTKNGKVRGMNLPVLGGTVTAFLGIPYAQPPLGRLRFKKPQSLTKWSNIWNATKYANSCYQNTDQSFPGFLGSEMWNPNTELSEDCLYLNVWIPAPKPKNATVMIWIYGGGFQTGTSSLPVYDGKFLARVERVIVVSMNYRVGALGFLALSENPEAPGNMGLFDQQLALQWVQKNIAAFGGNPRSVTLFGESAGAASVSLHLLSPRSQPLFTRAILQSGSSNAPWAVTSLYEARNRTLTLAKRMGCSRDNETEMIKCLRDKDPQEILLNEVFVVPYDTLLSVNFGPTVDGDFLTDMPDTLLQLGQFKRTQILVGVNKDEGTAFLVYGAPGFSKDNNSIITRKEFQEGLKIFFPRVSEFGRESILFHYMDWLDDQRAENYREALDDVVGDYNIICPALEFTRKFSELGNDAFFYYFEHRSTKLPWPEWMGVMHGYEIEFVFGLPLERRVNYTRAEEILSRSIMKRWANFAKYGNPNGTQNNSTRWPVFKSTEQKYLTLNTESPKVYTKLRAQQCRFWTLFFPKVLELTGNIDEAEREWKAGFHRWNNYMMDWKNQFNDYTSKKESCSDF
Sequence of Cholinesterase (P81908 whole entry): as above
T4 sequence (P56817 whole entry): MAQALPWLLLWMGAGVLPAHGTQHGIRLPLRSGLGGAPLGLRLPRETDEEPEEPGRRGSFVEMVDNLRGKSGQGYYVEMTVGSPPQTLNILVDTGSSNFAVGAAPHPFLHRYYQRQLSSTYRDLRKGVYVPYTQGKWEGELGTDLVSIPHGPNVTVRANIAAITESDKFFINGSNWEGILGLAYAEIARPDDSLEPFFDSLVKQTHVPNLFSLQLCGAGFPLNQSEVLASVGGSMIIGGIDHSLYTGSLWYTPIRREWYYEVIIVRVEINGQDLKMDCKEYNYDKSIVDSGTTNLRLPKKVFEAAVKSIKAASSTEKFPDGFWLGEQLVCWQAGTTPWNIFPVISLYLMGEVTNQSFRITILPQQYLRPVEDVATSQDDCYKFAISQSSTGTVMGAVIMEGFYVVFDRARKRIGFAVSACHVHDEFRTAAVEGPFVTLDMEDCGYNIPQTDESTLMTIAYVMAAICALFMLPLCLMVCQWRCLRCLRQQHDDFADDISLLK
Sequence of Acetylcholinesterase (Electrophorus electricus) (O42275 24-633 limits assumed): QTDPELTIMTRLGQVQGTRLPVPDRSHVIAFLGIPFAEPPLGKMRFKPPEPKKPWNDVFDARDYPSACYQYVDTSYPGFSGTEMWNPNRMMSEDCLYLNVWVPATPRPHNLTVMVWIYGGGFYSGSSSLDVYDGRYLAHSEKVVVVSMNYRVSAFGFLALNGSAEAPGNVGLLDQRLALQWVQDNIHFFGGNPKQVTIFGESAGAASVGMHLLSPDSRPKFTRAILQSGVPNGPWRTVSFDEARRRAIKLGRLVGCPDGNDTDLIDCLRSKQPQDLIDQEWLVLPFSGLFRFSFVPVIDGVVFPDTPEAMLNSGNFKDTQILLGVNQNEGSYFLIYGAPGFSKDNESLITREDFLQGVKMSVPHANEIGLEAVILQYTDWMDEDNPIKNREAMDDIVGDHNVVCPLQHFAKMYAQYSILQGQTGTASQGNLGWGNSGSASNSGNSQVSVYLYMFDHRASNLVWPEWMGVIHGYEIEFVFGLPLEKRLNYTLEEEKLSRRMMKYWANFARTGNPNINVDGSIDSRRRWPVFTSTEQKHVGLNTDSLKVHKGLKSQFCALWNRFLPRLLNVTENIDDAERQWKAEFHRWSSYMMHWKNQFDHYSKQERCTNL
Sequence of Amyloid-beta precursor protein (Homo sapiens) (P05067 whole entry): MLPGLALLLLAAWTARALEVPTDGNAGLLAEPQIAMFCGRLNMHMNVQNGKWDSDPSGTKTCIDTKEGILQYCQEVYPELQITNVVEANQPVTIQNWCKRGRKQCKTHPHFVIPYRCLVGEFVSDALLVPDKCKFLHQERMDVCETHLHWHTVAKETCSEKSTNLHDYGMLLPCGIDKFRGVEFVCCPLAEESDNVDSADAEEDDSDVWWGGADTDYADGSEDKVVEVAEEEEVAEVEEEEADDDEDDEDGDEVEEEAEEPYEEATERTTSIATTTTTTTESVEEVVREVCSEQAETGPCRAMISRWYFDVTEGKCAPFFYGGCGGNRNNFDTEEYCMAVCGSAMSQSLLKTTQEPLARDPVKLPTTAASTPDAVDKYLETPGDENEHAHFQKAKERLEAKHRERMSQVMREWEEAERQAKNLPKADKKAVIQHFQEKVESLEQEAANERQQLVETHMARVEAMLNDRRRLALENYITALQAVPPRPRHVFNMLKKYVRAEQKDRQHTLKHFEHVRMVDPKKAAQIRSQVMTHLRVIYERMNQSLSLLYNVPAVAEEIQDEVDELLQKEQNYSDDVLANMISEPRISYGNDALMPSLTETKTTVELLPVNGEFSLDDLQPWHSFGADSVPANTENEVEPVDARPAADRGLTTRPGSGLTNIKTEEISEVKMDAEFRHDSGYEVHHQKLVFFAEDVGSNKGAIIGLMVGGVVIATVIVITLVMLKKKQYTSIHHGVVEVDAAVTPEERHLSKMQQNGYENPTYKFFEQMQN

SMILES	IC50 [5] [µM]	inhibition [6] [%]	inhibition [7] [%]	inhibition [8] [%]	IC50 ([9]; read-out: pIC50 (converted)) [µM]	IC50 [10] [µM]	Ki [12] [µM]	IC50 ([14]; read-out: pIC50 (converted)) [µM]	IC50 ([15]; read-out: pIC50 (converted)) [µM]	other results
CN(CCC=C(c1ccccc1)c1ccccc1)C(CO)C(=O)NCc1ccccc1Cl (centres undefined)	–	–	–	–	–	–	–	–	–	IC50 [1]: 13 µM; IC50 [2]: 19 µM; IC50 [3]: 10 µM
Cc1ccsc1C(=CCCN(C)[C@H]1CCCC[C@H]1C(=O)O)c1sccc1C	–	–	–	–	–	–	–	–	–	IC50 [1]: 21 µM
CN(CCC=C1c2ccccc2-c2ccccc21)C(CCO)C(=O)NCc1ccc(Cl)cc1 (centres undefined)	17.3	< 10	–	–	–	–	–	–	–	inhibition [4]: 46%
O=C(NCCCCCCCCNc1c2c(nc3cc(Cl)ccc13)CCCC2)c1ccc2nc(-c3ccc(Cl)cc3)c3c(c2c1)NCCC3	–	–	72.1	80.8	–	–	–	–	–	–
Cc1ccc(CNC(=O)C(CCN)N(C)CCOCCN2c3ccccc3Sc3ccccc32)cc1 (centres undefined)	–	< 10	–	–	7.76	3.63	40.7	11	11.5	inhibition [11]: 47%; IC50 ([13]; read-out: pIC50 (converted)): 7.76 µM
CN(CCC=C1c2ccccc2CCc2ccccc21)C(CCN)C(=O)NCc1ccccc1Cl (centres undefined)	5.13	28	–	–	–	1.23	–	–	–	–
CN(CCOCCN1c2ccccc2Sc2ccccc21)C(CCN)C(=O)NCc1ccc(F)cc1 (centres undefined)	5.35	< 10	23.9	74.7	8.32	1.02	77.6	14.8	14.1	IC50 ([13]; read-out: pIC50 (converted)): 10.2 µM
CC(O)CC(C(=O)NCc1ccccc1)N(C)CC/C=C/c1ccccc1-c1ccccc1 (racemic; form 2)	–	–	–	–	–	3.71	24.5	44.7	41.7	pIC50 ([9]; hek293): 4.87; IC50 ([13]; read-out: pIC50 (converted)): 15.1 µM
CN(CCC=C1c2ccccc2-c2ccccc21)C(CCO)C(=O)NCc1ccc(F)cc1 (centres undefined)	–	< 10	21.5	77.1	–	0.978	–	–	–	inhibition [11]: 66%
CN(CCC=C1c2ccccc2CCc2ccccc21)C(CCN)C(=O)NCc1ccc(Cl)cc1 (centres undefined)	29	33	–	–	–	2.98	–	–	–	–
O=C(NC1CCN(C(c2ccccc2)c2ccccc2)CC1)C1CC2c3ccccc3NC2CN1 (centres undefined)	–	< 10	–	–	–	–	–	–	–	Activity [16]: 89%; inhibition [4]: < 10%; Activity [17]: 73%; Activity [18]: 87%; Activity [19]: 57%
CN(CCOCCn1c2ccccc2c2ccccc21)C(CCN)C(=O)NCc1ccc(F)cc1 (centres undefined)	–	< 10	30.9	95.3	17.4	0.345	–	33.9	18.2	Activity [17]: 82%; inhibition [11]: 78%; IC50 ([13]; read-out: pIC50 (converted)): 20 µM
CN(CCOCCN1c2ccccc2Sc2ccccc21)C(CCN)C(=O)NCc1ccccc1Cl (centres undefined)	5.17	14	27.1	74	6.17	0.411	57.5	12.6	8.71	IC50 ([13]; read-out: pIC50 (converted)): 6.61 µM
CN(CCOCCN1c2ccccc2Sc2ccccc21)C(CCO)C(=O)NCc1ccc(Cl)cc1 (centres undefined)	–	< 10	–	–	7.94	4.27	–	–	20.9	Activity [17]: 96%; Activity [18]: 57%; Activity [19]: 55%; inhibition [11]: 44%
Cc1ccc(CNC(=O)C(CCN)N(C)CCC=C2c3ccccc3CCc3ccccc32)cc1 (centres undefined)	4.03	15	–	–	–	2.35	–	–	–	–
CN(CCC=C1c2ccccc2CCc2ccccc21)C(CCN)C(=O)NCc1ccc(F)cc1 (centres undefined)	4.88	21	–	–	–	1.21	–	–	–	–
CN(CCC=C1c2ccccc2-c2ccccc21)C(CCO)C(=O)NCc1ccccc1 (centres undefined)	19.5	< 10	15.8	58.7	–	0.978	–	–	–	–
CN(CCOCCn1c2ccccc2c2ccccc21)C(CCN)C(=O)NCc1ccccc1Cl (centres undefined)	–	< 10	30.2	92.4	12.9	0.204	93.3	19.5	9.33	inhibition [11]: 79%; IC50 ([13]; read-out: pIC50 (converted)): 8.32 µM
CN(CCOCCN1c2ccccc2Sc2ccccc21)C(CCN)C(=O)NCc1ccccc1 (centres undefined)	22.9	< 10	34.9	96.7	10	0.35	67.6	15.8	15.1	IC50 ([13]; read-out: IC50): 3 µM
CN(CCC=C(c1ccccc1)c1ccccc1)C(=O)C1Cc2c([nH]c3ccccc23)CN1 (centres undefined)	–	38	–	–	4.07	3.13	79.4	12	–	IC50 ([9]; read-out: IC50): 4.1 µM; Activity [19]: 55%; IC50 ([15]; read-out: IC50): 6.3 µM
O=C(O)[C@@H]1CCCN(CCOCCN2c3ccccc3Sc3ccccc32)C1	–	–	–	–	–	–	–	–	–	IC50 [2]: 0.3 µM
CN(CC/C=C/c1ccccc1-c1ccc(Cl)cc1Cl)C(CCN)C(=O)NCc1ccccc1 (centres undefined)	5.41	–	–	–	6.61	1.43	28.2	–	7.41	Activity [19]: 18%; IC50 ([14]; read-out: IC50): 5.5 µM
CN(CCC=C(c1ccccc1)c1ccccc1)C(CN)C(=O)NCc1ccccc1Cl (centres undefined)	–	–	–	–	–	–	–	–	–	IC50 [1]: 6 µM; IC50 [2]: 13 µM; IC50 [3]: 9 µM
CN(CC/C=C/c1ccccc1-c1ccc(Cl)cc1Cl)C(CCO)C(=O)NCc1ccccc1 (centres undefined)	–	–	–	–	7.76	–	–	–	7.41	inhibition [4]: 47%; Activity [17]: 49%; Activity [18]: 45%; Activity [19]: 13%; inhibition [11]: 52%
CC(CC(=O)O)NCCOCCN1c2ccccc2Sc2ccccc21 (centres undefined)	–	–	–	–	–	–	–	–	–	IC50 [2]: 9 µM
CN(CCC=C1c2ccccc2CCc2ccccc21)C(CCN)C(=O)NCc1ccccc1 (centres undefined)	6.68	15	–	–	–	1.47	–	–	–	–
